Article PMC4309560, “Creating Novel Activated Factor XI Inhibitors through Fragment Based Lead Generation and Structure Aided Drug Design” (PLoS ONE, 2015)
Where two headings read alike, the source gives them in different places.

Assays:
[1] = target: T1, FXIa CD (Homo sapiens, UniProt P03951, C500S/K455A/S452A/T493A); assay: Ligand detected 1D NMR fragment screen; type: binding; settings: compounds screened at 100 μM, 5 μM FXIa CD
T1 construct: purification of the catalytic domain (residues 370–607) was carried out as described by Jin et al; made in house
T1 sequence (P03951 388-625 S452A/K455A/T493A/C500S): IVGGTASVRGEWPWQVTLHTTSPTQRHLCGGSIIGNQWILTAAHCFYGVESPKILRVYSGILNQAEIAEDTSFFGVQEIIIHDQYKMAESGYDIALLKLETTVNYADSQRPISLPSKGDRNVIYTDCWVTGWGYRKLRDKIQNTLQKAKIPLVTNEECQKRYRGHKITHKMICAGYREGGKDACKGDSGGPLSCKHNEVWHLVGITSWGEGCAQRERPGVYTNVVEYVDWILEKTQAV
Experimental: Ligand detected 1D NMR. Compounds were screened at 100 μM in mixtures of six. Weakly binding fragments were identified from intensity changes through measurements on three samples viz. […] The signal from a compound binding with low affinity to FXIa CD decreased upon addition of protein and regained upon addition of a high affinity reference compound. Comparison with reference spectra of individual compounds enabled identification of the binding fragment in a mixture. […] As a positive control, the S1 binding ligand para-methyl-benzamidine (pMeBza), compound 3, was used, and in Fig. 3 the doublet at 7.66 ppm is shown.
NMR samples were prepared in aqueous buffer containing 50 mM deuterated TRIS, pH 7.4, 3 mM NaN3, and 10% D2O. FXIa CD stock solution was buffer exchanged and concentrated to approximately 100 μM (2.7 mg/mL) (UV absorption ε280 = 60390 cm^-1) using 10 kDa cut-off Millipore filter centrifugation tubes. Control experiments with pMeBza and compound 2 were done on all protein preparations (Fig. 3). […]
NMR data were collected at 20 °C on a Bruker Avance III 600 MHz NMR spectrometer equipped with a cryo probe head. 1D ^1H T 1ρ NMR spectra were recorded with 256 scans, 3.2 s interscan delay, 180 ms spin lock time and 64 kHz spin lock field. […]

[2] = target: T2, Human FXIa (Homo sapiens, UniProt P03951); assay: FXIa enzymatic chromogenic assay; type: biochemical
T2 construct: purchased HTI, Essex Junction, USA
T2 sequence (P03951 388-625): as the sequence (P03951 388-625 S452A/K455A/T493A/C500S) above, with A65S, A68K, A106T, S113C counted along it
T2 sequence (P03951 19-387): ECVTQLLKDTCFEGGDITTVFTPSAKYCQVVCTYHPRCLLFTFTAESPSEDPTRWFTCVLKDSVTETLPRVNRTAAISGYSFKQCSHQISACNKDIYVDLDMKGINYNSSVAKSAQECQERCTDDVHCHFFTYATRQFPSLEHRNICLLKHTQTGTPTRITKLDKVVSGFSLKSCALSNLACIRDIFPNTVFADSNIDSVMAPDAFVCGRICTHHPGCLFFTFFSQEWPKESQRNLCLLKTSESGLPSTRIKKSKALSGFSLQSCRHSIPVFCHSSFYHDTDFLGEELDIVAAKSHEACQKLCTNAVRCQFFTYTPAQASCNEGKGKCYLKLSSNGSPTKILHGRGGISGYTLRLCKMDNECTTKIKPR
Experimental: (§1) Enzymatic assay. […] Selected compounds were also screened against other serine proteases to evaluate their selectivity profiles.
(§2) Once the compounds were synthesized and characterized, enzymatic assays were performed to evaluate the inhibitory activity of the resulting compounds against FXIa and other serine proteases. […] IC50 values for the compounds were determined using equation: Q= V/(1+([I]/IC50)^n) Q denotes the assay readout, V denotes the uninhibited velocity of the enzyme, [I] denotes the inhibitor concentration, n denotes the slope and IC50 is the inhibitor concentration at V/2.
(§3) [S] denotes the substrate concentration.

[3] = tested on: rat models; set-up: method as in PMID 17597608; settings: cited from earlier work
[4] = tested on: FXIa; set-up: method as in PMID 17597608; settings: irreversible inhibition; cited from earlier work
[5] = target: T1, FXIa CD; assay: FXIa surface plasmon resonance (Biacore) inhibition in solution assay; type: binding
Description: SPR. […] The SPR data were then used to rank and select compounds for X-ray crystallography experiments. The SPR method was based on an inhibition in solution assay in which compound 4, immobilized on the biosensor surface, served as a probe for the FXIa catalytic site. […] Fig. 4 illustrates the design of compound 4 based on the crystal structure of FXIa in complex with compound 1. Since any ligand that binds to the S1 pocket competes with compound 4 for binding to FXIa CD, it is possible to derive the K D for that ligand [60]. The initial binding rate of the protein to compound 4, K on, was used to determine the percentage of free protein in solution which changed by varying the concentration of the competing ligand. The free protein concentration was plotted against the logarithm of the ligand concentration and a sigmoidal dose–response curve-fit model was applied to determine the K D-value.
The tethered free amine ligand 4 was covalently linked to the dextran layer on the CM5 sensor chip (GE Healthcare/Biacore) using the Amine Coupling Kit (Healthcare/Biacore) and performed according to the manufacturer’s recommendations. Carboxyl groups on the dextran layer were activated by injecting a 1:1 mixture of 0.5 M N-ethyl-N’ (3-dimethylaminopropyl)-carbodiimide and 0.5 M N-hydroxysuccinimide at 10 μL/min for 7 min. The activated carboxyl groups on the control channels were blocked by injecting a 1 M ethanolamine solution for 7 min at 10 μL/min. […] The remaining activated groups were blocked with 1 M ethanolamine. Compounds were tested in a concentration response curve. The compounds were serially diluted 1:3 in DMSO to form a 10-point concentration response curve with 5 mM for the highest concentration. The FXIa CD was added to the plate at a final concentration of 50 nM and the mixture was incubated for 15 min at RT. The plate was then sealed and placed in the Biacore 3000 instrument. Samples were injected at 20 μL/min for 2 min. […] The value used to calculate percent inhibition of binding was the slope of the response measured 8 s after the start of the injection. […]

[6] = target: T3, Human PKK (Homo sapiens, UniProt P03952); assay: PKK (plasma kallikrein) chromogenic assay; type: biochemical; settings: for Ki: converted from IC50
T3 construct: trypsin, plasma kallikrein (PKK), FIXa; purchased Calbiochem, Darmstadt, Germany
T3 sequence (P03952 391-638 limits assumed): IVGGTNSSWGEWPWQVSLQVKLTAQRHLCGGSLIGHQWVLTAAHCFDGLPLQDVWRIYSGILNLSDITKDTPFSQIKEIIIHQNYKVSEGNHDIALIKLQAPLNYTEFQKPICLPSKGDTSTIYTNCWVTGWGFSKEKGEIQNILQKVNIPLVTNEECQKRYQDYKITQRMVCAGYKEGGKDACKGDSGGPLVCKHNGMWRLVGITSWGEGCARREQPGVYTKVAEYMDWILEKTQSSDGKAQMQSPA
T3 sequence (P03952 20-390 partner limits assumed): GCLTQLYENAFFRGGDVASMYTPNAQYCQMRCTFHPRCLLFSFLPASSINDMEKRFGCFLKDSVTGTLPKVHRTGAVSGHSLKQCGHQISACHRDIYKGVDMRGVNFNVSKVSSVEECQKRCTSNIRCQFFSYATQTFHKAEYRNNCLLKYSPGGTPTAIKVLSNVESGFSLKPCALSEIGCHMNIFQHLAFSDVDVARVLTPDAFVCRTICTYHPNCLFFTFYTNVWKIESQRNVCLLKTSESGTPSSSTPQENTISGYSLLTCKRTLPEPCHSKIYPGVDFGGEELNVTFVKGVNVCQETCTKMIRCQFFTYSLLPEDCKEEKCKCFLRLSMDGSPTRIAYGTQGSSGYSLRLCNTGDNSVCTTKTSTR
Experimental: as §1, §2, §3
PKK. Human PKK was from Calbiochem, Darmstadt, Germany.

[7] = Experimental pKa
[8] = Precipitation in FXIa potency measurement; type: physicochemical
[9] = Caco2 efflux; type: in vitro ADME; settings: human, Caco-2; Caco2, Papp B to A / Papp A to B, pH 7.4 at side A
Description: Efflux was studied in the same Caco2 cells with the modification that HBSS buffer pH 7.4 was used on both sides of the monolayer. The permeability was studied in the apical to basolateral direction (Papp AB) as well as in the basolateral to apical direction and (Papp BA). Efflux ratios were derived from the following equation: Papp BA/Papp AB.

[10] = tested on: Caco2 cells; assay: Caco2 permeability; type: in vitro ADME; settings: measured at pH 6.5
Experimental: A monolayer of Caco2 cells, cultured on semi-permeable polycarbonate surfaces, was used to study the permeability in the apical to basolateral direction. The process was atomized by a robotic Tecan EVO platform (Männerdorf, Switzerland) and 24-transwell plates from Costar (Cambridge, MA, USA). HBSS buffer pH 7.4 was dispensed to the basal side of the monolayer. […] Samples for quantitative analysis by LC/MS/MS were withdrawn before the addition of the test substrate and at 45 and 120 min post addition of the test substrate. During incubation the transwell plates were placed in a shaking incubator at 37°C between sampling. The peak areas were exported to Excel where Papp-values and recoveries were calculated. Twenty-two reference compounds with known human oral bioavailability were used to establish a correlation curve with Papp versus the fraction of the oral dose absorbed (fa).

[11] = Chromatographic determination of lipophilicity; type: physicochemical; settings: reversed-phase UPLC, Waters BEH C18 stationary phase, pH 7.4; measured by liquid chromatography, pH7.4
Description: The chromatographic data was obtained utilizing a Waters Aquity UPLC chromatographic system running a gradient from 5–95% acetonitrile at pH7.4. The stationary phase was a Waters BEH C18 2.1x50 mm. Standardized retention data were obtained by normalization against a set of compounds with precisely determined (octanol/water) logD-values. Lipophilicity values for samples were derived from a corresponding calibration curve.

[12] = tested on: rat hepatocytes; assay: Rat hepatocyte metabolic stability assay; type: in vitro ADME
Experimental: Rat hepatocyte metabolic stability was determined in accordance with the method described by Jacobson et al.. Cryo preserved hepatocytes at a concentration of 10^6 viable cells/mL were used. After thawing, hepatocytes were incubated for 10 min to warm to 37°C and test compounds, dissolved in acetonitrile, were added to give a final concentration of 1 μM. At 0.5, 5, 15, 30, 45, 60, 80, 100 and 120 min, the incubation system was mixed and 20 μL aliquots were transferred at each time point to wells in a separate plate filled with 80 μL acetonitrile to stop the reaction. The quenching plate was then vortexed followed by centrifugation, and supernatants were analyzed by LC/MS/MS. Peak areas were determined from extracted ion chromatograms, and the in vitro intrinsic clearance (in vitro CLint, in μL/min/10^6 cells) of parent compound was calculated from the slope in the regression analysis of the natural logarithm of parent concentration vs. time curve.

[13] = In vivo rat PK; settings: female, Sprague Dawley, plasma
Experimental: Two days prior to dosing, female Sprague Dawley rats were prepared by cannulation of the left carotid artery for blood sampling and by cannulation of the right jugular vein for intravenous administration. The catheters were filled with heparin (100 IU/mL), exteriorized at the nape of the neck and sealed. The surgery was performed under isoflurane (Forene®, Abbott) anesthesia. After surgery the rats were housed individually and had free access to food and water. About 16 h prior to dosing the animals were deprived of food, and fasted until 4 h after dosing. The rats had free access to drinking water during the experiment. On the experiment day, the test item formulation was administered orally by gavage or intravenously in the jugular vein. At pre-defined time points, blood samples of about 0.150 mL were withdrawn from the carotid artery up to 24h after dosing. A total of 10 samples were withdrawn. The blood samples were collected in heparinized plastic tubes and centrifuged, within 30 min, for five min at 10 000 g and +4°C. The plasma was transferred to a 96 well plate and stored at -20°C until analysis by LC/MS/MS. The studies were approved by the Göteborg Animal Research Ethical Board.

6-methyl-3,4-dihydro-1H-quinolin-2-one [Compound 17]
hit in NMR screen [1]: not identified as a hit in NMR | FXIa % inh. at 1 mM ([2]; 1 mM): 20%

CC(C)(C)NC(=O)N1CCN(C(=O)N2C(=O)[C@H](CCCN=C(N)N)[C@H]2C(=O)O)CC1 [BMS-262084]
in vivo antithrombotic efficacy [3]: demonstrated in vivo antithrombotic efficacy | IC50 [4]: 0.0028 µM

N=C(N)c1ccc2cc(C(=O)Nc3cccc(OCCOCCN)c3)cc(Nc3ncccn3)c2c1 [Compound 4, N-(3-(2-(2-aminoethoxy)ethoxy)phenyl)-6-carbamimidoyl-4-(pyrimidin-2-ylamino)-2-naphthamide, reference compound]
Kd [5]: 0.39 µM | IC50 [2]: 0.24 µM | Ki [2]: 0.12 µM

Nc1ccc2c(CNC(=O)[C@H](Cc3ccccc3)NC(=O)c3ccc4[nH]c(=O)cc(O)c4c3)cccc2n1 [Compound 8, (S)-N-(1-{(2-Aminoquinolin-5-yl)methylamino}-1-oxo-3-phenylpropan-2-yl)-4-hydroxy-2-oxo-1,2-dihydroquinoline-6-carboxamide]
IC50 [6]: 7.2 µM | selectivity vs. PKK ([6]; FXIa over PKK, for 13 based on Ki values): about 25 fold | Ki [6]: 1.5 µM | IC50 [2]: 0.12 µM | Ki [2]: 0.06 µM | pKa [7]: 7.1

Cc1cc(=O)[nH]c2ccc(Cl)cc12 [Compound 12]
inhibition at 111 µM ([2]; read-out: FXIa % inh. at 111 μM): 43% | Precipitates at higher concentration than [8]: > 111 µM

CNC(=O)[C@H](Cc1ccccc1)NC(=O)c1ccc2[nH]c(=O)cc(O)c2c1 [Compound 15, (S)-4-Hydroxy-N-(1-(methylamino)-1-oxo-3-phenylpropan-2-yl)-2-oxo-1,2-dihydroquinoline-6-carboxamide]
Kd ([5]; read-out: FXIa KD): 1400 µM | ligand efficiency (LE) ([2]; FXIa): 0.15 | -ΔG fragment (printed with reversed sign in the ΔG link equation) ([2]; FXIa, subtracted term, so ΔG itself is negative): 3.9 kcal/mol

CN(Cc1cc(=O)[nH]c2ccc(Cl)cc12)C(=O)[C@H](Cc1ccccc1)N(C)C(=O)c1ccc2[nH]c(=O)cc(O)c2c1 [Compound 26, (S)-N-(1-[{(6-Chloro-2-oxo-1,2-dihydroquinolin-4-yl)methyl}(methyl)amino]-1-oxo-3-phenylpropan-2-yl)-4-hydroxy-N-methyl-2-oxo-1,2-dihydroquinoline-6-carboxamide]
efflux ratio [9]: > 3.8 | IC50 [2]: 1.7 µM | Ki [2]: 0.85 µM | Caco2 A to B permeability [10]: 0.16 1·10^-6 cm/s | chromatographic logD [11]: 1.4 | Rat CLint [12]: 23 μL/min/ 1·10^6 cells

Cc1c(-c2ccccc2)n[nH]c1C(=O)N(C)Cc1cc(=O)[nH]c2ccc(Cl)cc12 [Compound 28, N-{(6-Chloro-2-oxo-1,2-dihydroquinolin-4-yl)methyl}-N,4-dimethyl-3-phenyl-1H-pyrazole-5-carboxamide]
efflux ratio [9]: 1.6 | clearance ([13]; intravenous, rat in vivo, read-out: Rat CL (in vivo clearance)): 18 mL/min/kg | bioavailability ([13]; rat, oral): 27% | IC50 [6]: 8.4 µM | Ki [6]: 1.7 µM | IC50 [2]: 0.82 µM | Ki [2]: 0.41 µM | Caco2 A to B permeability [10]: 19 1·10^-6 cm/s | chromatographic logD [11]: 2.7 | Rat CLint [12]: 21 μL/min/ 1·10^6 cells
